Among the data in US10577383B2, “Macrocyclic inhibitors of myeloperoxidase” (BRISTOL-MYERS SQUIBB COMPANY, priority 2016, dated 2020) are IC50 values, retold here.

pIC50: −log10 of the molar value.

Assay type in all cases: biochemical
Experiment [1] deals with EPX (Homo sapiens (Human), UniProt P11678). The experiment is described as follows: EPX Bromination Assay. Conditions: EPX bromination activity, 100 mM KPi (pH 7.4), 3-bromo tyrosine formation. How it is done: (§1) [formula] where A=minimal Y value (activity level of inhibited sample), B=maximal Y value (activity level of uninhibited sample), C=Log IC50, D=Hill Slope, x=concentration of inhibitor. EPX Bromination Assay
Sequence of EPX (P11678 251-715): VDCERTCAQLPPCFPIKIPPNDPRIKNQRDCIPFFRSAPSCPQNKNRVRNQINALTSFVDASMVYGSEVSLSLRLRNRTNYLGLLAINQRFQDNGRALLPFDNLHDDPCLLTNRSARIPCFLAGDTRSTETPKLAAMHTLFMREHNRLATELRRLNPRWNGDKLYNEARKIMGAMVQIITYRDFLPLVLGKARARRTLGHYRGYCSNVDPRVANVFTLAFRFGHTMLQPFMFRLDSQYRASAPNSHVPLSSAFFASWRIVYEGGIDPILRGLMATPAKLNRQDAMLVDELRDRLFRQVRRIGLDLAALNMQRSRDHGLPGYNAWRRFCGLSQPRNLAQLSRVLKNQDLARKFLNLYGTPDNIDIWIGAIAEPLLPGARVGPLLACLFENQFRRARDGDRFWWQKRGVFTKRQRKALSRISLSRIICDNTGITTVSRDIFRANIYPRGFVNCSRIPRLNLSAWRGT
Sequence of EPX (P11678 140-250): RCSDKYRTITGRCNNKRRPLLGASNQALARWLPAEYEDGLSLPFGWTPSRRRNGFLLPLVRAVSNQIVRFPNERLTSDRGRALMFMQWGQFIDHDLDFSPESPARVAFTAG
EPX bromination activity was measured in 100 mM KPi (pH 7.4) by monitoring the H2O2 catalyzed formation of 3-bromo tyrosine from tyrosine and potassium bromide. A 50 μl mixture of 0.6 μM EPX (Lee Biosolutions Cat. #342-60) was added to 100 nL inhibitor in 100% DMSO in a 384 well REMP plate. Enzyme and compound were preincubated for ten minutes at room temperature.
After the ten minute preincubation of enzyme and inhibitor, 25 μL of a mixture containing 400 μM tyrosine and 1200 μM potassium bromide was added to the plate containing enzyme and inhibitor, followed by the addition of 25 μl of 20 μM H2O2. The reaction was allowed to proceed for 15 minutes, at which time it was quenched with 10 μL of 20% TCA. The final concentrations of all components were 0.3 μM EPX, 100 μM tyrosine, […], 5 μM H2O2, 0.1% DMSO, 2.0% TCA.
IC50 values were determined by determining the peak areas of 3-bromo-tyrosine present at the end of the 15 minute reaction and fitting the data to:
[formula] where A=minimal Y value (activity level of inhibited sample), B=maximal Y value (activity level of uninhibited sample), C=Log IC50, D=Hill Slope, x=concentration of inhibitor.
Reversed-phase analysis was performed on a Waters Acquity Ultra Performance LC system using an Acquity UPLC BEH C18 […], 2.1×50 mm analytical column. The column was maintained at 60° C. Samples were eluted using a gradient of 0%-100% B over 2.5 minutes, followed by equilibration with 100% A for 1 minute where A consisted of 0.1% TFA and B consisted of 90% MeOH/0.1% TFA at a flow rate of 0.6 mL/min. The retention time of 3-bromo tyrosine was 1.22 min

The target in experiment [2] is T1, myeloperoxidase (Homo sapiens (Human), UniProt P05164). The experiment is described as follows: MPO Peroxidation Assay (Amplex Red Assay). Conditions: MPO peroxidation activity, 100 mM KPi (pH 7.4), ten minute preincubation; potency ranges defined in nM. The method, then: MPO Peroxidation Assay (Amplex Red Assay)
T1 sequence (P05164 49-745): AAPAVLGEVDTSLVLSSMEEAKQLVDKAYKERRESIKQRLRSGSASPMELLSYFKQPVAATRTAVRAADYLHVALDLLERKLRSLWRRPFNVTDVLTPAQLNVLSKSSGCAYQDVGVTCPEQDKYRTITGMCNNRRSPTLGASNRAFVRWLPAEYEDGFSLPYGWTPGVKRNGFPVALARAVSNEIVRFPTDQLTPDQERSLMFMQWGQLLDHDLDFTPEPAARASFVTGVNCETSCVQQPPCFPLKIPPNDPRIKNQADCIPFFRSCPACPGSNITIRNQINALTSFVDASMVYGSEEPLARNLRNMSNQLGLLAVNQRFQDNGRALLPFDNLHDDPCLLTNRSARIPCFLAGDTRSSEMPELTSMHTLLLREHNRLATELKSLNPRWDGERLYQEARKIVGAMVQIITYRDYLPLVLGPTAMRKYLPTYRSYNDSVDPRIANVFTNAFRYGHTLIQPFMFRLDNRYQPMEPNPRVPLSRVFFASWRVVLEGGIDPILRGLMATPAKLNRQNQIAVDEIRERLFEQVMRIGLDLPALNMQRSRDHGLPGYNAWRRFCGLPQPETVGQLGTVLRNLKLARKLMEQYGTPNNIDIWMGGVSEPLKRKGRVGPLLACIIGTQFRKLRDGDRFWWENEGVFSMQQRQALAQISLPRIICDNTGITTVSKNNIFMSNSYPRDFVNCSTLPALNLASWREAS
MPO peroxidation activity was measured in 100 mM KPi (pH 7.4) by utilizing the non-fluorescent reagent Amplex Red (Invitrogen Cat. #A12222) which can be oxidized to the highly fluorescent resorufin. Amplex Red is oxidized by the peroxidase action of MPO to resorufin. Reactions were carried out in 50 μL total volume by adding a 25 μL mixture of 200 pM myeloperoxidase and 40 nM H2O2 (Sigma #349887) to 100 nL inhibitor in 100% DMSO in a 384 well Perkin Elmer Optiplate. Enzyme and compound were preincubated for ten minutes at room temperature.
After the ten minute preincubation, 25 μL of an Amplex Red mixture containing 200 μM Amplex Red and 10 mM H2O2 was added to the plate. Kinetic determinations were carried out immediately on a Perkin Elmer Envision (15 minute kinetic read, Ex: 535 nm, Em: 590 nm).
(§2) IC50 values were calculated by determining the slope of the linear portion of the kinetic trace (180-540 secs), and using that calculated slope to determine % inhibition occurring at each concentration of inhibitor using the following equation:
(§3) [formula] where A=minimal Y value (activity level of inhibited sample), B=maximal Y value (activity level of uninhibited sample), C=Log IC50, D=Hill Slope, x=concentration of inhibitor. MPO Chlorination Assay (APF Assay) MPO chlorination activity was measured in 100 mM KPi (pH 7.4) by utilizing the non-fluorescent reagent Aminophenyl fluorescein (APF, Invitrogen Cat. #A36003). APF is cleaved by (—OCl) to yield the fluorescent compound fluorescein. Reactions were carried out in 50 μL total volume by adding a 25 μL mixture of 200 pM myeloperoxidase and 120 mM NaCl to 100 nL inhibitor in 100% DMSO in a 384 well, non-binding surface clear bottom plate (Corning #3655). Enzyme, inhibitor, and chloride were preincubated for ten minutes at room temperature.

The target of experiment [3] is T1, myeloperoxidase. Put plainly: MPO Chlorination Assay (APF Assay). Particulars: MPO chlorination activity, 100 mM KPi (pH 7.4), 120 mM NaCl, ten minute preincubation; potency ranges defined in nM. How it is done:
as §3
After the ten minute preincubation, 25 μL of an APF mixture containing […], 120 mM NaCl and 10 μM H2O2 was added to the plate using the internal dispensing system of a Hammatsu FDSS 6000. Kinetic determinations were carried out immediately on the FDSS 6000 (3 minute kinetic read, 1 read every second, ex: 485 nm, em: 535 nm). IC50 values for inhibitors were calculated by taking the slope of the linear portion of the kinetic measurement (20 seconds to 80-120 secs).
as §2, §1

On to `Nc1cc(C2CCNCCc3cccc(c3)Oc3cccc(c3)Cn3cc2cn3)c2nn[nH]c2n1` (single isomer, unassigned) [Example 5, 7-{18-oxa-3,4,10-triazatetracyclo[17.3.1.1^3,^6.1^13,^1^7]pentacosa-1(23),4,6(25),13,15,17(24),19,21-octaen-7-yl}-3H-[1,2,3]triazolo[4,5-b]pyridin-5-amine], for which the pIC50 – broadly, the IC50 on a negative log10 scale, so that one unit is a factor of ten – in experiment [1] is 7.43. Also, the IC50 in experiment [2] and in experiment [3] was 1 to 100 nM in each case.
The compound `Nc1cc(C2CCNCC3(CC3)COc3cccc(c3)Cn3cc2cn3)c2nn[nH]c2n1` (single isomer, unassigned) [Example 20, 7-{14′-Oxa-3′,4′,10′-triazaspiro[cyclopropane-1,12′-tricyclo[13.3.1.1^3,^6]icosane]-1′(19′),4′,6′(20′),15′,17′-pentaen-7′-yl}-3H-[1,2,3]triazolo[4,5-b]pyridin-5-amine] gave a pIC50 in experiment [1] of 7.20. In addition, the IC50 in experiment [2] and in experiment [3] was 101 to 999 nM throughout.
`Nc1cc(C2CCNCc3cccc(c3)COc3cccc(c3)Cn3cc2cn3)c2nn[nH]c2n1` (stereo not drawn) [Example 2, 7-{18-oxa-3,4,10-triazatetracyclo[17.3.1.1^3,^6.1^12,^1^6]pentacosa-1(23),4,6(25),12,14,16(24),19,21-octaen-7-yl}-3H-[1,2,3]triazolo[4,5-b]pyridin-5-amine] gave a pIC50 in experiment [1] of 6.72. Further, the IC50 (in general, the point on the concentration scale where inhibition reaches its midpoint) in experiment [2] fell in the range of 101 to 999 nM; in experiment [3] it was 1 to 100 nM.
In experiment [1], `Nc1cc(C2CCNC3CCC(CC3)COc3cccc(c3)Cn3cc2cn3)c2nn[nH]c2n1` (stereo not drawn) [Example 18, 7-{3-Oxa-10,11,17-triazatetracyclo[16.2.2.1^4,^8.1^1^0,^13]tetracosa-4,6,8(24),11,13(23)-pentaen-14-yl}-3H-[1,2,3]triazolo[4,5-b]pyridin-5-amine] had a negative-log IC50 (pIC50) of 6.66. Further, the results for the IC50 in experiment [2] and in experiment [3] were 101 to 999 nM and 1 to 100 nM, respectively.
